Values of other authors as cited in US20070248669A1, “Oral sustained release formulation” (priority 2006, published 2007).
Where a name gives a salt, the structure may show the parent alone.

What was measured:
[1] = daily multiple dosing regimen, patients under treatment
[2] = compressed tablets, therapeutic dosing

COc1ccc(C(CN(C)C)C2(O)CCCCC2)cc1 (stereo not drawn) [venlafaxine hydrochloride, 1-[2-(dimethylamino)-1-(4-methoxyphenyl)-ethyl]cyclohexanol]
patients experiencing nausea [1]: about forty five
patients with vomiting [1]: about seventeen
time after administration until normal plasma levels are approached [2]: about twelve
